Source: article PMC10518257 (Nature Cancer, 2023)
Where “and” joins values, the source holds several entries; their conditions need not be identical. Equal entries are not always repeated. Where two headings read alike, the source gives them in different places.

Columns and labels:
[1] = system: LC-2/ad NSCLC xenograft; assay: Subcutaneous xenograft efficacy study; type: in vivo, BALB/c nude mice
[2] = system: NIH-3T3-CCDC6::RET xenografts; assay: Subcutaneous xenograft efficacy study
[3] = system: NIH-3T3 CCDC6-RET luciferase cells implanted intracranially; assay: Intracranial efficacy study; type: in vivo, nude mice; conditions: 50 mg per kg BID from day 5 after implantation
[4] = system: RET^G810R phosphorylation in Ba/F3 KIF5B–RET^G810R allograft tumors; assay: Western blotting of tumors 1 h after dosing (target engagement); type: in vivo, mice; conditions: 10 mg per kg and 30 mg per kg
[5] = Pharmacokinetic analysis of vepafestinib in rats (microdialysis PFC, CSF, plasma); type: in vivo, male Han Wistar rats; conditions: individual rats

## COCc1ccc(NC(=O)c2c(C#CCN3CCOCC3)n(C3(C)CC3)c3ncnc(N)c23)cc1 [Vepafestinib, 4-amino-N-[4-(methoxymethyl)phenyl]-7-(1-methylcyclopropyl)-6-[3-(morpholin-4-yl)prop-1-yn-1-yl]-7H-pyrrolo[2,3-d]pyrimidine-5-carboxamide]
[1]; 25 mg/kg BID, day 0
  Tumor Volume (mm3) Mean: 143.372 mm3
[1]; 25 mg/kg BID, day 4
  Tumor Volume (mm3) Mean: 128.076 mm3
[1]; 25 mg/kg BID, day 8
  Tumor Volume (mm3) Mean: 127.413 mm3
[1]; 25 mg/kg BID, day 11
  Tumor Volume (mm3) Mean: 123.160 mm3
[1]; 25 mg/kg BID, day 15
  Tumor Volume (mm3) Mean: 151.811 mm3
[1]; 50 mg/kg BID, day 0
  Tumor Volume (mm3) Mean: 140.580 mm3
[1]; 50 mg/kg BID, day 4
  Tumor Volume (mm3) Mean: 117.460 mm3
[1]; 50 mg/kg BID, day 8
  Tumor Volume (mm3) Mean: 119.902 mm3
[1]; 50 mg/kg BID, day 11
  Tumor Volume (mm3) Mean: 105.200 mm3
[1]; 50 mg/kg BID, day 15
  Tumor Volume (mm3) Mean: 98.169 mm3
[1]; 50 mg/kg QD, day 0
  Tumor Volume (mm3) Mean: 140.683 mm3
[1]; 50 mg/kg QD, day 4
  Tumor Volume (mm3) Mean: 139.893 mm3
[1]; 50 mg/kg QD, day 8
  Tumor Volume (mm3) Mean: 112.730 mm3
[1]; 50 mg/kg QD, day 11
  Tumor Volume (mm3) Mean: 118.521 mm3
[1]; 50 mg/kg QD, day 15
  Tumor Volume (mm3) Mean: 131.887 mm3
[2]; 25 mg/kg BID
  Area Under Curve of tumor growth, Mean: 1601
[2]; 25 mg/kg BID, day 0, individual animals
  Tumor volume: 93.59 mm3 (2×) and 90.28 mm3 (3×)
[2]; 25 mg/kg BID, day 2, individual animals
  Tumor volume: 193.69 mm3 and 110.58 mm3 and 112.28 mm3 and 116.25 mm3 (2×)
[2]; 25 mg/kg BID, day 5, individual animals
  Tumor volume: 537.65 mm3 and 353.84 mm3 and 294.89 mm3 and 435.05 mm3 and 334.49 mm3
[2]; 25 mg/kg BID, day 8, individual animals
  Tumor volume: 612.84 mm3 and 590.68 mm3 and 301.59 mm3 and 585.96 mm3 and 389.56 mm3
[2]; 25 mg/kg QD, day 0, individual animals
  Tumor volume: 85.5 mm3 (2×) and 93.59 mm3 and 90.28 mm3 (2×)
[2]; 25 mg/kg QD, day 5, individual animals
  Tumor volume: 285.69 mm3 and 281.26 mm3 and 438.74 mm3 and 367.92 mm3 and 382.08 mm3
[2]; 25 mg/kg QD, day 8, individual animals
  Tumor volume: 705.04 mm3 and 750.45 mm3 and 1169.92 mm3 and 945.8 mm3 and 1108.35 mm3
[2]; 50 mg/kg BID
  Area Under Curve of tumor growth, Mean: 678.7
[2]; 50 mg/kg BID, day 0, individual animals
  Tumor volume: 90.28 mm3
[2]; 50 mg/kg BID, day 5, individual animals
  Tumor volume: 225.29 mm3 and 277.15 mm3 and 217.15 mm3 and 205.88 mm3 and 223.64 mm3
[2]; 50 mg/kg BID, day 8, individual animals
  Tumor volume: 231.59 mm3 and 332.9 mm3 and 291.54 mm3 and 235.62 mm3 (2×)
[2]; 50 mg/kg QD, day 0, individual animals
  Tumor volume: 93.59 mm3 and 83.97 mm3 (2×) and 85.5 mm3 and 90.28 mm3
[2]; 50 mg/kg QD, day 5, individual animals
  Tumor volume: 270.08 mm3 and 180.15 mm3 and 189.86 mm3 and 245.54 mm3 and 226.78 mm3
[2]; 50 mg/kg QD, day 8, individual animals
  Tumor volume: 466.45 mm3 and 389.65 mm3 and 491.45 mm3 and 378.3 mm3 and 446.6 mm3
[2]; 100 mg/kg QD
  Area Under Curve of tumor growth, Mean: 371
[2]; 100 mg/kg QD, day 0, individual animals
  Tumor volume: 83.97 mm3 (4×) and 85.5 mm3
[2]; 100 mg/kg QD, day 5, individual animals
  Tumor volume: 153.78 mm3 and 149.63 mm3 and 176.28 mm3 and 145.47 mm3 and 154.42 mm3
[2]; 100 mg/kg QD, day 8, individual animals
  Tumor volume: 153.78 mm3 and 197.55 mm3 and 200.12 mm3 (2×) and 192.42 mm3
[3]
  median survival: 52 days
[4]
  inhibition of RET^G810R phosphorylation in tumors: completely inhibited
[5]; 3 mg/kg, 30 min
  Concentration in Rats, Plasma (free fraction): 411 nM and 290 nM and 384 nM and 193 nM
[5]; 3 mg/kg, 60 min
  Concentration in Rats, Plasma (free fraction): 248 nM and 212 nM and 391 nM and 168 nM
[5]; 3 mg/kg, 60 min, read-out: Concentration in Rats, Cerebrospinal fluid
  concentration at 480 min: 109 nM
[5]; 3 mg/kg, 60 min, read-out: Concentration in Rats, Plasma (total)
  concentration at 120 min: 1620 nM and 1390 nM and 2560 nM and 1100 nM
[5]; 3 mg/kg, 120 min
  Concentration in Rats, Plasma (free fraction): 129 nM and 143 nM and 163 nM and 115 nM
[5]; 3 mg/kg, 180 min
  Concentration in Rats, Plasma (free fraction): 68 nM and 120 nM and 97.8 nM and 63 nM
[5]; 3 mg/kg, 300 min
  Concentration in Rats, Plasma (free fraction): 17.3 nM and 28.1 nM and 50.7 nM and 32.7 nM
[5]; 3 mg/kg, 360 min
  Concentration in Rats, Plasma (free fraction): 8.57 nM and 13.7 nM and 36.5 nM
[5]; 3 mg/kg, 480 min
  Concentration in Rats, Plasma (free fraction): 24.3 nM
[5]; 10 mg/kg, 30 min
  Concentration in Rats, Plasma (free fraction): 1323 nM and 1543 nM and 1071 nM and 1204 nM
[5]; 10 mg/kg, 60 min
  Concentration in Rats, Plasma (free fraction): 1016 nM and 1083 nM and 660 nM and 921 nM
[5]; 10 mg/kg, 120 min
  Concentration in Rats, Plasma (free fraction): 503 nM and 680 nM and 665 nM and 714 nM
[5]; 10 mg/kg, 180 min
  Concentration in Rats, Plasma (free fraction): 272 nM and 513 nM and 529 nM and 374 nM
[5]; 10 mg/kg, 240 min
  Concentration in Rats, Plasma (free fraction): 133 nM and 237 nM and 243 nM and 244 nM
[5]; 10 mg/kg, 300 min
  Concentration in Rats, Plasma (free fraction): 53.6 nM and 90.5 nM and 129 nM and 102 nM
[5]; 10 mg/kg, 360 min
  Concentration in Rats, Plasma (free fraction): 30.4 nM and 53.8 nM and 63.3 nM and 53.6 nM
[5]; 10 mg/kg, 480 min
  Concentration in Rats, Plasma (free fraction): 15.6 nM and 25.5 nM and 17.7 nM
[5]; 50 mg/kg, 30 min
  Concentration in Rats, Plasma (free fraction): 2310 nM and 2399 nM and 2002 nM and 1803 nM
[5]; 50 mg/kg, 60 min
  Concentration in Rats, Plasma (free fraction): 1589 nM and 1818 nM and 1742 nM and 1803 nM
[5]; 50 mg/kg, 120 min
  Concentration in Rats, Plasma (free fraction): 1415 nM and 2506 nM and 1273 nM and 2017 nM
[5]; 50 mg/kg, 180 min
  Concentration in Rats, Plasma (free fraction): 947 nM and 2200 nM and 964 nM and 1305 nM
[5]; 50 mg/kg, 240 min
  Concentration in Rats, Plasma (free fraction): 591 nM and 2093 nM and 1166 nM and 1108 nM
[5]; 50 mg/kg, 300 min
  Concentration in Rats, Plasma (free fraction): 740 nM and 1435 nM and 817 nM and 694 nM
[5]; 50 mg/kg, 360 min
  Concentration in Rats, Plasma (free fraction): 891 nM and 1181 nM and 821 nM and 400 nM
[5]; 50 mg/kg, 480 min
  Concentration in Rats, Plasma (free fraction): 20.5 nM and 680 nM and 743 nM and 651 nM
[5]; male, Han Wistar, rat, cerebrospinal fluid, oral, 3 mg/kg, 120 min, read-out: Concentration in Rats, Cerebrospinal fluid
  concentration at 120 min: 67.4 nM
